These results are taken from patent publication US20240261294A1, “METHOD FOR TREATING IDH INHIBITOR-RESISTANT SUBJECTS” (Eli Lilly and Company, priority 2021, published 2024).

For the assay, the target named is T1, IDH2 R172K_G260A cis (Homo sapiens, UniProt P48735, G260A/R172K).
T1 construct: expressed in transfected cells; host or cells: U-87 MG
T1 sequence (P48735 40-452 R172K/G260A): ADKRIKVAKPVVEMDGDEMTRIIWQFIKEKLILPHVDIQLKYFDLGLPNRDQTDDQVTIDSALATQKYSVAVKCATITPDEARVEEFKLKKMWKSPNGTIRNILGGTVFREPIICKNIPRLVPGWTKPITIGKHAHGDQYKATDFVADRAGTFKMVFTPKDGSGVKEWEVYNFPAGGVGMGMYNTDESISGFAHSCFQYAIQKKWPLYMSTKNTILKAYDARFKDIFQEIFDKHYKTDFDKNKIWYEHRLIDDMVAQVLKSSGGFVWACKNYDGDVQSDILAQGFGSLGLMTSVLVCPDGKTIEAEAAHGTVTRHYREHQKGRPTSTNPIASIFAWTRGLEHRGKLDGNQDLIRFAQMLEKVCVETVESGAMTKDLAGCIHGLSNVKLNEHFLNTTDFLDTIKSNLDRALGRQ
Kind of assay: Inhibition of 2-HG production in IDH2 mutant U-87 MG cells. Type of assay: cell-based. The note with it: 16 hours incubation, 50K cells/well, 100 μl media/well, read-out: Relative IC50 (nM) Mean, inhibition of 2-HG production.

As for `C=CC(=O)N1CCN([C@@H](CC2CC2)c2ccc([C@H](C)Nc3ncc4c(n3)N(CC)C(=O)OC4)cc2)CC1` [Compound A, 7-[[(1S)-1-[4-[(1S)-2-cyclopropyl-1-(4-prop-2-enoylpiperazin-1-yl)ethyl]phenyl]ethyl]amino]-1-ethyl-4H-pyrimido[4,5-d][1,3]oxazin-2-one], the IC50 – broadly, the concentration needed to halve the response being measured – amounted to 13 nM.
